The results in this text go back to ChEMBL document CHEMBL1153753, “Structure-activity relationships and mechanism of action of antitumor bis 8-hydroxyquinoline substituted benzylamines” (Eur J Med Chem, 2010).

The nature of assay [1]: Disregulation of endoplasmic reticulum stress responsive gene expression in human U87 cells assessed as change in ARN1 mRNA level at 0.5 uM after 16 hrs by microarray analysis relative to untreated control. It is filed as functional, cell-based. The note with it: U-87MG ATCC.
The nature of assay [2]: Disregulation of DNA-damage and oxidative stress responsive gene expression in human U87 cells assessed as change in SESN2 mRNA level at 0.5 uM after 3 hrs by microarray analysis relative to untreated control. It is filed as functional, U-87MG ATCC.
The nature of assay [3]: Disregulation of inflammation related gene expression in human U87 cells assessed as change in IL6 mRNA level at 0.5 uM after 16 hrs by microarray analysis relative to untreated control. Format: functional, cell-based. The note with it: U-87MG ATCC.
Assay [4] can be described thus: Disregulation of inflammation related gene expression in human U87 cells assessed as change in IL8 mRNA level at 0.5 uM after 16 hrs by microarray analysis relative to untreated control. It is filed as functional, cell-based. The note with it: U-87MG ATCC.
A short description of assay [5]: Disregulation of cell survival related gene expression in human U87 cells assessed as change in BCL2L10 mRNA level at 0.5 uM after 16 hrs by microarray analysis relative to untreated control. It is filed as functional, cell-based. The settings on record: U-87MG ATCC.
The nature of assay [6]: Disregulation of cell survival related gene expression in human U87 cells assessed as change in FGF2 mRNA level at 0.5 uM after 16 hrs by microarray analysis relative to untreated control. The note with it: U-87MG ATCC. Format: functional, cell-based.
A short description of assay [7]: Disregulation of cell survival related gene expression in human U87 cells assessed as change in FGF18 mRNA level at 0.5 uM after 16 hrs by microarray analysis relative to untreated control. Format: functional, cell-based. The settings on record: U-87MG ATCC.
Assay [8] is described as follows: Disregulation of cell cycle related gene expression in human U87 cells assessed as change in SKP2 mRNA level at 0.5 uM after 16 hrs by microarray analysis relative to untreated control. It is filed as functional, cell-based. The note with it: U-87MG ATCC.
The next assay relates to U-87MG ATCC. The experiment in a line: Antiproliferative activity against human U87 cells expressing GFP assessed as apparent cell death at 20 uM after 3 days by flash-cytometry. It is filed as functional, cell-based.
The nature of assay [9]: Disregulation of inflammation related gene expression in human U87 cells assessed as change in IL1A mRNA level at 0.5 uM after 16 hrs by microarray analysis relative to untreated control. Format: functional, cell-based. The settings on record: U-87MG ATCC.

The structures appear in SMILES notation. The source made the active and inactive calls. No cut-off for these calls is given here.

Consider `Cc1ccc(CN(Cc2ccc(O)c3ncccc23)Cc2ccc(O)c3ncccc23)cc1`, for which the fold change (FC) is 3 in assay [1]; above 1.4 in assay [2]; 3 in assay [3]; 3 in assay [4]; 3 in [5]; 3 in [6]. The fold change (FC) in assay [7] and in [8] was 3 each time. The result in the assay on U-87MG ATCC was inactive. Also, the outcome in [9] was Active.
